The text below walks through data of PMC7961786, “Magic Peptide: Unique Properties of the LRR11 Peptide in the Activation of Leukotriene Synthesis in Human Neutrophils” (International Journal of Molecular Sciences, 2021).

Oligonucleotides are written 5' to 3', each unit as a sugar letter and its base; * is a phosphorothioate linkage, no mark a phosphodiester; rarer units and linkages stand in square brackets, end groups in braces. Plain capitals give the bases only. d = 2'-deoxy (DNA)

Series [1] relates to human neutrophils (PMNLs), 5-LOX product synthesis. Put plainly: 5-LOX metabolite synthesis in human neutrophils stimulated with opsonized S. typhimurium (HPLC). It is filed as cell-based. How it is done:
Figure 1 Effects of LRR11 and ODNs on the formation of LTB4 (A,B) and the sum of 5-LOX metabolites (ω-OH-LTB4, LTB4 and its isomers, and 5-HETE) (C) in human PMNLs. PMNLs (2 × 10^7) were incubated for 15 min at 37 °C without (black bars) or with 1 μM LRR11 (A, LRR11_first); then ODNs and LRR11 or LPS were added; various ways of adding ODN and LRR11 peptide are indicated. In control samples, Hanks’ solution was added instead of ODNs. After 20 min, 0.5 × 10^9 S. typhimurium bacterial cells were added for a further 15 min. The 5-LOX products were determined using HPLC. Values indicate mean ± SEM of five independent experiments performed in duplicate. * p < 0.05, ** p < 0.01, *** p < 0.005, compared with the control. # p < 0.05, ## p < 0.01 for pairs of data compared as indicated by two-way ANOVA followed by Tukey’s multiple comparison test.
Figure 3 Synthesis of the 5-LOX metabolites in PMNLs exposed to opsonized S. typhimurium bacteria in the presence of the RAGE antagonist FPS-ZM1. PMNLs (2 × 10^7) were incubated for 15 min at 37 °C without additives or with 0.15 µM FPS-ZM1, for the next 20 min the mixture was incubated with 1 µM ODNs without (black bars) or with 1 µM LRR11 (gray bars) before adding 5 × 10^8 S. typhimurium for 15 min. In control samples, Hanks’ solution was added instead of ODNs. The 5-LOX products were determined using HPLC. Graphical data are presented for LTB4 (A) or the sum of LTB4 and its isomers, ω-OH-LTB4 and 5-HETE, designed as Σ5LOX products (B).
Human neutrophils were isolated from freshly taken citrate-anticoagulated peripheral blood from healthy individuals using standard methods. Leukocyte-rich plasma was prepared by sedimentation of erythrocytes with 3% dextran T-500 at room temperature. For purification of granulocytes, centrifugation through Ficoll-Paque (density 1.077 g/mL) was used, followed by hypotonic lysis of the remaining erythrocytes. […] All methods were performed in accordance with the relevant instructions and regulations of the Ministry of Health of the Russian Federation and local legislation.
Bacteria (S. typhimurium IE 147 strain) obtained from the Collection of Gamaleya National Research Center of Epidemiology and Microbiology (Moscow, Russia) were grown in Luria–Bertani broth to a concentration of 1 × 10^9 colony-forming units (CFU)/mL. The bacteria were collected by centrifugation at 2000 g and opsonized immediately before the experiment for 30 min in 20% (v/v) fresh serum from the same donor whose blood was used to isolate neutrophils. Repeated centrifugation in Dulbecco’s solution was used to wash the bacteria.
The cell suspension (2 × 10^7 PMNLs in HBSS/HEPES, reaction volume of 6 mL) was cultured for 15 min in an incubator at 37 °C, 5% CO2. Then 1.0 µM ODN with or without 1.0 µM LRR11, or 2 µg/mL LPS, was added as indicated. After 20 min, the cells were stimulated with S. typhimurium (the ratio of bacteria to PMNLs was approximately 20:1) for the next 15 min [3]. The synthesis of 5-LOX metabolites was stopped by adding an equal volume of methanol at −20 °C with prostaglandin B2 as an internal standard. Samples were stored at −20 °C. The denatured cell suspension was centrifuged, and supernatants designated as water/methanol extracts.
(§1) To purify the water/methanol extracts, solid-phase extraction was used on Sep-Pak C18 cartridges (500 mg; Macherey-Nagel, Dueren, Germany), which were conditioned first with methanol, and then with water. Major 5-LOX metabolites were identified by comparing retention times with those of known compounds, as previously described.
Table S1. Effect of Chloroquine on 5-LOX product formation in PMNLs after ODN priming followed by the addition
of opsonized S. typhimurium bacteria.

In a further series the test system is PMNLs. Put plainly: Phagocytosis of FITC-labeled S. typhimurium by neutrophils. To be noted: 1 µM ODN +/- 1 µM LRR11, FITC-labeled S. typhimurium 20 min; n = 3; Figure S2b. It counts as cell-based, human. How it is done:
Figure S2b. Influence of LRR11 and ODNs on phagocytic activity of neutrophils. PMNLs supplemented with 1 µM ODN +/- 1 µM LRR11, except for control samples containing HBSS/HEPES instead of ODNs, were incubated for 20 min in Eppendorf tubes at 37 °C in 5% CO2 with continuous stirring. FITC-labeled S. typhimurium were then added for next 20 min, followed by FACS analysis (excitation: 488 nm, emission: 525 nm). Both the relative amounts of PMNLs involved in phagocytosis (A, B) and the fluorescence intensities, reflecting the average number of bacteria captured per cell (C, D), were estimated. To distinguish between internalized and surface-bound bacterial cells, trypan blue at a working concentration of 1 mg/ml, was used to quench the surface FITC fluorescence caused by the attached bacteria. Thus, each series of samples was duplicated to obtain results both without (A, C) and with (B, D) TB quenching, which corresponds to the total interaction and uptake of bacteria. Averaged flow cytometry data are presented, including means ± SEM for the percentages of FITC-positive (i.e., phagocytic) cells (A, B), and mean ± SEM for fluorescence intensities of FITC-positive subpopulations (C, D) (n=3; * p < 0.05; ** p < 0.01 in comparison with corresponding controls, ns – non significant, as indicated by two-way ANOVA followed by Dunnett’s or Tukey’s multiple comparison tests). […]

Series [2] deals with human neutrophils (PMNLs), 5-LOX product synthesis. Further details: method as in PMID 27036535. Particulars: ref [3]; cited from earlier work.
In the next series the test system is TLR9 signaling. Particulars: ref [25]; cited from earlier work.
Series [3] relates to human neutrophils (PMNLs). As to the kind of experiment: Binding and uptake of FAM-labeled ODNs by neutrophils (flow cytometry). It counts as cell-based. To be noted: 0.15 µM FPS-ZM1, 15 min, then 1 µM FAM-ODN 20 min; n = 3; Figure 7. How it is done:
Figure 6 The LRR11 peptide affects the binding and uptake of ODNs by neutrophilic granulocytes. PMNLs (1 × 10^6/mL) in HBSS/HEPES were incubated for 20 min at 37 °C in 5% CO2 with 1 µM FAM-labeled ODN, supplemented or not with 1 µM LRR11 peptide. Both the total ODN accumulation (red) and its intracellular constituent (black) were analyzed by flow cytometry. Surface fluorescence was quenched by trypan blue (TB) solution. Values represent the means ± SEM of FAM fluorescence intensities (RFU, relative fluorescence units) (n = 8). ** p < 0.01; *** p < 0.005, **** p < 0.001 for specified data pairs, as indicated by two-way ANOVA followed by Tukey’s multiple comparison test. Mean fluorescence intensities of unstained PMNLs were 62 ± 12 and 39 ± 5.6 without or after TB quenching, respectively.
Figure 7 RAGE antagonist effect on oligonucleotide penetration into neutrophil cells. […] Both total oligonucleotide accumulation (A) and its intracellular constituent (B) were analyzed by flow cytometry. The surface fluorescence was quenched by trypan blue solution. Values represent the means ± SEM of FAM fluorescence intensities (RFU) (n = 3). * p < 0.05; […]; *** p < 0.005 for the pair of data specified, as indicated by two-way ANOVA followed by Tukey’s multiple comparison test. Fluorescence intensities of unstained controls were 62 ± 14 and 49 ± 6 without, or after TB quenching, respectively. […]

For series [4], the system named is PMNLs, 5-LOX product formation. Put plainly: 5-LOX product formation in PMNLs stimulated by calcium ionophore A23187. It is filed as cell-based, human. How it is done:
Human neutrophils were isolated from freshly taken citrate-anticoagulated peripheral blood from healthy individuals using standard methods. Leukocyte-rich plasma was prepared by sedimentation of erythrocytes with 3% dextran T-500 at room temperature. For purification of granulocytes, centrifugation through Ficoll-Paque (density 1.077 g/mL) was used, followed by hypotonic lysis of the remaining erythrocytes. PMNLs were washed twice in PBS, resuspended at 10^7 cells/mL (96–97% purity, 98–99% viability) in Dulbecco’s PBS containing 1 mg/mL glucose (no CaCl2) and stored at room temperature. All methods were performed in accordance with the relevant instructions and regulations of the Ministry of Health of the Russian Federation and local legislation.
as §1

Series [5] concerns vascular smooth muscle cells. To be noted: ref [56]; cited from earlier work. The text has this:
RAGE is shown to bind molecules, known as damage-associated molecular patterns (DAMPs), released by cells that die or are under conditions of inflammation.

A further series has as its system cells, CpG-ODN delivery. Particulars: ref [43],[44]; cited from earlier work. The source says:
(§2) LRR11, like LL-37, belongs to the group of cationic antimicrobial peptides, which are characterized by high content of hydrophobic residues (~40%) and overall positive charge due to the increased content of Arg and Lys residues. They block many functions of LPS [39, 40], interact with intracellular DNA, and mediate DNA uptake and transport in mammalian cells.

Series [6] has as its system telomeric G-quadruplex DNA. To be noted: ref [42]; cited from earlier work.
Excerpt: as §2

For the compound “5′-ggTTAGGGTTAGGGTTAGGGTTAGGGggggg-3′ (DNA dG*dG*dTdTdAdGdGdGdTdTdAdGdGdGdTdTdAdGdGdGdTdTdAdGdGdGdG*dG*dG*dG*dG) [G-rich ODN, G-rich ODN containing human telomeric tandem repeats]”, in series [1] (ODN alone, 1 µM, 20 min, then opsonized S. typhimurium 15 min, Figure 1, five independent experiments in duplicate), the “effect on 5-LOX activity / leukotriene synthesis” value is reported as “increased leukotriene synthesis”. Also, the “effect on bacteria engulfment” value in the series with PMNLs is reported as “only G-rich ODN facilitated the bacteria engulfment”.

`CCN(CC)CCCC(C)Nc1ccnc2cc(Cl)ccc12` (centres unmarked) [Chloroquine]: the “effect of chloroquine on CpG-ODN action on 5-LOX products” value in [1] (5 µM Chloroquine, B- and C-class CpG-ODNs, Table S1) was “the effects of B- and C-class CpG-ODNs were not sensitive to chloroquine”. Besides, the “Σ 5-LOX metabolites” value in [1] (Table S1, 2×10^7 PMNLs, 15 min at 37 °C without or with 5 µM Chloroquine, then ODN, after 20 min 0.5×10^9 opsonized S. typhimurium for 15 min, mean ± SEM, three independent experiments) is on record as 19.8 ± 2.7 ng/107 PMNLs. In addition, the “effect of chloroquine on inhibition of 5-LOX product formation by ODN 2216” value in series [2] is “abrogated by chloroquine”. Also, the “inhibition of CpG-ODN–induced cell activation” value in the series on TLR9 signaling is recorded as “known to inhibit CpG-ODN–induced cell activation”.

In the case of `O=C(c1ccc(Cl)cc1)N(Cc1ccccc1)C1CCCCC1` [FPS-ZM1], in series [1] (0.15 µM FPS-ZM1, S. typhimurium, Figure 3), the “effect of FPS-ZM1 on 5-LOX product formation stimulated by bacterial phagocytosis” value is “inhibited the 5-LOX product formation stimulated by bacterial phagocytosis”. In series [1] (150 nM FPS-ZM1, 15 min before 1 µM ODNs, Figure 3, four independent experiments), the “effect of FPS-ZM1 on ODN effects on leukotriene synthesis” value is reported as “strongly reduce the effects of ODNs on leukotriene synthesis”. Also, the “effect of RAGE antagonist on ODN internalization” value in [3] is on record as “suppressed ODN internalization”. Further, the “Σ 5-LOX metabolites” value in [4] (150 nM FPS-ZM1 30 min at 37 °C, then 1 µM A23187 10 min, mean ± SEM, three independent experiments) is 438 ± 42 ng/10^7 PMNLs. In addition, the “effect of FPS-ZM1 on A23187-induced leukotriene synthesis” value in series [4] (150 nM FPS-ZM1, 1 µM A23187) was “did not affect the leukotriene synthesis induced by the calcium ionophore A23187”.

In the case of `CCCCC/C=C\C[C@@H](O)/C=C/C=C/C=C\[C@@H](O)CCCC(=O)O` [LTB4, leukotriene B4, reference compound], the “RAGE expression / LTB4 production in vascular smooth muscle cells” value in [5] was “increases RAGE expression in proliferating human vascular smooth muscle cells”.

With LL-37, the “delivery of bacterial CpG-ODNs to cells” value with cells, CpG-ODN delivery was “promotes the rapid delivery of bacterial CpG-ODNs to cells”. The “complex with telomeric G-quadruplex DNA” value in series [6] is “forms a complex with telomeric G-quadruplex DNA”.
